Source: the CheMixHub viscosity set
± gives the uncertainty stated by the source.

Assay: xn = mol fraction of the nth substance listed

CCCCOCCO + OCCOCCOCCO
101 kPa
Conditions	viscosity [mPa·s]
293.15 K, x1 = 0.048	36.14 ± 0.23
293.15 K, x1 = 0.111	30.89 ± 0.2
293.15 K, x1 = 0.1958	25.06 ± 0.15
293.15 K, x1 = 0.3023	19.11 ± 0.12
293.15 K, x1 = 0.4053	14.62 ± 0.087
293.15 K, x1 = 0.4492	12.94 ± 0.077
293.15 K, x1 = 0.4988	11.29 ± 0.067
293.15 K, x1 = 0.5502	9.833 ± 0.058
293.15 K, x1 = 0.5922	8.791 ± 0.052
293.15 K, x1 = 0.6915	6.755 ± 0.041
293.15 K, x1 = 0.7959	5.249 ± 0.032
293.15 K, x1 = 0.8902	4.37 ± 0.027
293.15 K, x1 = 0.9457	3.879 ± 0.024
298.15 K, x1 = 0.0536	30.5 ± 0.2
298.15 K, x1 = 0.1049	27.17 ± 0.17
298.15 K, x1 = 0.2064	21.51 ± 0.13
298.15 K, x1 = 0.2953	17.55 ± 0.11
298.15 K, x1 = 0.3982	13.71 ± 0.082
298.15 K, x1 = 0.4518	12.06 ± 0.072
298.15 K, x1 = 0.5018	10.7 ± 0.064
298.15 K, x1 = 0.5494	9.463 ± 0.056
298.15 K, x1 = 0.5998	8.336 ± 0.05
298.15 K, x1 = 0.6966	6.451 ± 0.039
298.15 K, x1 = 0.7997	4.971 ± 0.031
298.15 K, x1 = 0.8916	3.873 ± 0.024
298.15 K, x1 = 0.9411	3.369 ± 0.021
303.15 K, x1 = 0.0501	26.39 ± 0.17
303.15 K, x1 = 0.1015	23.75 ± 0.15
303.15 K, x1 = 0.197	19.42 ± 0.12
303.15 K, x1 = 0.3006	15.59 ± 0.095
303.15 K, x1 = 0.4006	12.58 ± 0.076
303.15 K, x1 = 0.4531	11.14 ± 0.067
303.15 K, x1 = 0.4972	10.12 ± 0.061
303.15 K, x1 = 0.5469	8.986 ± 0.054
303.15 K, x1 = 0.6012	7.888 ± 0.047
303.15 K, x1 = 0.6893	6.343 ± 0.039
303.15 K, x1 = 0.803	4.661 ± 0.029
303.15 K, x1 = 0.89	3.59 ± 0.022
303.15 K, x1 = 0.9416	3.02 ± 0.019

CCOC(=O)CCl + OCc1ccccc1
viscosity [mPa·s], 101.3 kPa
Conditions	x1 = 0.1072	x1 = 0.2035	x1 = 0.2998	x1 = 0.395	x1 = 0.5	x1 = 0.5984	x1 = 0.6981	x1 = 0.7972	x1 = 0.8941
298.15 K	4.078 ± 0.049	3.295 ± 0.04	2.729 ± 0.034	2.285 ± 0.028	1.923 ± 0.024	1.669 ± 0.021	1.459 ± 0.019	1.326 ± 0.017	1.188 ± 0.016
303.15 K	3.567 ± 0.043	2.887 ± 0.035	2.428 ± 0.03	2.036 ± 0.026	1.747 ± 0.022	1.516 ± 0.019	1.334 ± 0.017	1.209 ± 0.016	1.092 ± 0.014
308.15 K	3.058 ± 0.037	2.48 ± 0.031	2.127 ± 0.027	1.815 ± 0.023	1.572 ± 0.02	1.365 ± 0.018	1.209 ± 0.016	1.093 ± 0.014	0.997 ± 0.013

[Cl-].[Cl-].[Cl-].[Cl-].[Ti+4] + [Cl-].[Cl-].[Cl-].[Cl-].[Sn+4]
viscosity [mPa·s], 101 kPa
Conditions	x2 = 0.2	x2 = 0.4	x2 = 0.6	x2 = 0.8
293.15 K	0.847 ± 0.015	0.87 ± 0.015	0.895 ± 0.015	0.922 ± 0.016
313.15 K	0.702 ± 0.012	0.703 ± 0.012	0.705 ± 0.012	0.709 ± 0.012

CC(C)CC(C)C + c1ccccc1
101 kPa, x1 = 0.5
Conditions	viscosity [mPa·s]
298 K	0.3825 ± 0.01
318 K	0.314 ± 0.0085

CCCCOCCO + c1ccccc1
viscosity [mPa·s], 101 kPa
Conditions	298.15 K	308.15 K
x1 = 0.0553	0.648 ± 0.012	0.562 ± 0.01
x1 = 0.1496	0.736 ± 0.013	0.631 ± 0.011
x1 = 0.2488	0.845 ± 0.015	0.717 ± 0.013
x1 = 0.3504	0.978 ± 0.016	0.821 ± 0.014
x1 = 0.4555	1.144 ± 0.019	0.949 ± 0.016
x1 = 0.4995	1.223 ± 0.02	1.011 ± 0.017
x1 = 0.5504	1.323 ± 0.022	1.088 ± 0.018
x1 = 0.6482	1.543 ± 0.025	1.258 ± 0.021
x1 = 0.7535	1.83 ± 0.029	1.479 ± 0.024
x1 = 0.8483	2.143 ± 0.033	1.718 ± 0.028
x1 = 0.9556	2.575 ± 0.04	2.048 ± 0.033

CCOC(=O)CCl + c1ccccc1
viscosity [mPa·s], 101.3 kPa
Conditions	x1 = 0.0985	x1 = 0.1983	x1 = 0.2974	x1 = 0.3925	x1 = 0.5049	x1 = 0.6023	x1 = 0.696	x1 = 0.7994	x1 = 0.8998
298.15 K	0.634 ± 0.006	0.659 ± 0.007	0.694 ± 0.007	0.734 ± 0.007	0.781 ± 0.007	0.834 ± 0.008	0.886 ± 0.008	0.949 ± 0.008	1.019 ± 0.009
303.15 K	0.592 ± 0.006	0.616 ± 0.006	0.649 ± 0.007	0.687 ± 0.007	0.731 ± 0.007	0.779 ± 0.007	0.825 ± 0.008	0.883 ± 0.008	0.948 ± 0.009
308.15 K	0.549 ± 0.006	0.574 ± 0.006	0.605 ± 0.006	0.64 ± 0.007	0.681 ± 0.007	0.723 ± 0.007	0.765 ± 0.007	0.82 ± 0.008	0.878 ± 0.008

COC(=O)c1ccccc1 + c1ccccc1
viscosity [mPa·s], 101 kPa
Conditions	x1 = 0.0773	x1 = 0.1534	x1 = 0.2362	x1 = 0.3252	x1 = 0.4217	x1 = 0.5176	x1 = 0.6241	x1 = 0.7379	x1 = 0.8662
303.15 K	0.613 ± 0.011	0.675 ± 0.011	0.75 ± 0.01	0.835 ± 0.012	0.929 ± 0.012	1.043 ± 0.012	1.165 ± 0.013	1.305 ± 0.013	1.482 ± 0.014
313.15 K	0.543 ± 0.011	0.588 ± 0.011	0.645 ± 0.011	0.71 ± 0.01	0.784 ± 0.012	0.874 ± 0.012	0.985 ± 0.012	1.107 ± 0.013	1.245 ± 0.013

O=C(OCc1ccccc1)c1ccccc1 + c1ccccc1
viscosity [mPa·s], 101 kPa
Conditions	x1 = 0.11	x1 = 0.1886	x1 = 0.27	x1 = 0.4124	x1 = 0.52	x1 = 0.5911	x1 = 0.7827	x1 = 0.8954
298.15 K	0.9057 ± 0.0095	1.196 ± 0.032	1.514 ± 0.016	2.301 ± 0.061	3.073 ± 0.034	3.584 ± 0.095	5.478 ± 0.15	6.883 ± 0.18
313.15 K	0.7205 ± 0.0075	–	1.161 ± 0.012	–	2.18 ± 0.023	–	–	–

c1ccc2c(c1)CCCC2 + c1ccccc1
298.15 K, 101 kPa
Conditions	viscosity [mPa·s]
x1 = 0.1394	0.719 ± 0.0095
x1 = 0.3016	0.8758 ± 0.011
x1 = 0.493	1.098 ± 0.014
x1 = 0.7222	1.445 ± 0.019
